Source: patent US4550186A, “Binuclear copper (II) carboxylates formed from amine-carboxyboranes” (Duke University, priority 1983, dated 1985)

Legend:
[1] = system: Ehrlich ascites carcinoma; experiment: Ehrlich ascites carcinoma growth in CF1 male mice; assay type: in vivo, mouse
Description: CF1 male mice (~30 g) were implanted with 2×10^6 Ehrlich ascites tumor cells, intraperitoneally on Day 0. Compound I was suspended by homogenation in 0.05% polysorbate.80-water and administered intraperitoneally at 10 and 20 mg/kg for 9 days to determine its effectiveness for inhibition of tumor growth. Mice were sacrificed on Day 10, and the ascites fluid was collected from the peritoneal cavity. The volume and ascrit (packed cell volume) were determined for each animal and the percent inhibition of tumor growth was calculated. For the metabolic studies, mice were treated on Days 8 and 9 with 10 mg/kg of Compound I, intraperitoneally. The animal was sacrificed on Day 10 and the ascites fluid harvested. The in vitro metabolic studies were performed at […] final concentration of Compound I.

[2] = doses of 150-200 mg/kg; cited from earlier work

Row | SMILES | Ascrit Packed Cell Vol. ([1]; Standard, dose not given) | Percent Inhibition ([1]; Standard, dose not given) | Vol(ml) Ascites Fluid ([1]; Standard, dose not given) | No. of Animals Survived on Day 10 ([1]; mouse, in vivo) | lowers serum cholesterol [2] | lowers serum triglyceride levels [2]
1 | Sc1ncnc2nc[nH]c12 [6-mercaptopurine, reference compound] | 2.5 | 99.9% | 0.10 mL | 6 |  | 
2 | CCOC(=O)C(C)(C)Oc1ccc(Cl)cc1 [clofibrate] |  |  |  |  | 6-15% | 25%
